Activity calls are given as the source filed them. No cut-off for these calls is given here.
Legend:
Aspergillus fumigatus [1] = experiment: Antifungal activity against Aspergillus fumigatus isolate CEA 10 infected in ICR mouse assessed as pulmonary fungal burden at 40 mg/kg, po QD; format: functional
Aspergillus fumigatus [2] = experiment: Antifungal activity against Aspergillus fumigatus isolate AF 293 infected in ICR mouse assessed survival of the mouse at 40 mg/kg, po QD; format: functional, organism-based; parameters: dose 40 mg/kg
Aspergillus fumigatus [3] = experiment: Antifungal activity against Aspergillus fumigatus isolate CEA 10 infected in ICR mouse assessed as decrease in (1-3)-beta-D-glucan concentration in serum at 40 mg/kg, po QD (RVb= 707 pg/ml); format: functional, organism-based; parameters: dose 40 mg/kg
Aspergillus fumigatus [4] = experiment: Antifungal activity against Aspergillus fumigatus isolate AF 293 infected in ICR mouse assessed as pulmonary fungal burden at 40 mg/kg, po QD; format: functional
Aspergillus fumigatus [5] = experiment: Antifungal activity against Aspergillus fumigatus isolate AF 293 infected in ICR mouse assessed as decrease in (1-3)-beta-D-glucan concentration in serum at 40 mg/kg, po QD (RVb= 758 pg/ml); format: functional, organism-based; parameters: dose 40 mg/kg
Aspergillus fumigatus [6] = experiment: Antifungal activity against Aspergillus fumigatus isolate CEA 10 infected in ICR mouse assessed survival of the mouse at 40 mg/kg, po QD; format: functional, organism-based; parameters: dose 40 mg/kg

Question: Which results are given for `CC[C@@H]([C@H](C)O)n1ncn(-c2ccc(N3CCN(c4ccc(OC[C@@H]5CO[C@@](Cn6cncn6)(c6ccc(F)cc6F)C5)cc4)CC3)cc2)c1=O` [POSACONAZOLE]?
Answer: fold change (FC) (Aspergillus fumigatus [1]): 7.3; Activity (Aspergillus fumigatus [2]): Active; Activity (Aspergillus fumigatus [3]): Active; fold change (FC) (Aspergillus fumigatus [4]): 3.6; Activity (Aspergillus fumigatus [5]): Active; Activity (Aspergillus fumigatus [6]): Active
